In patent US20230407243A1, “GENETIC PLATFORM TO INVESTIGATE THE FUNCTIONS OF BACTERIAL DRUG EFFLUX PUMPS” (priority 2022, published 2023):

Tests used:
Format in all cases: cell-based, Escherichia coli
[1] = system: ΔtolC-Pore; assay: microbe, parasite or virus in culture; details: technical duplicate
Method: (§1) For genomic integration of the pore, the fhuA ΔC/Δ4L gene and the adjacent gentamicin resistance cassette were amplified using a high-fidelity polymerase and the fhuA_40_Up/gImS_3680_Low primers (Table 4). Integration of the pore gene was performed as described above. The pore gene was introduced into the intergenic region between the glmS and pstS genes, with gene expression under the control of a constitutive promoter (Kearse, M. et al., 2012). Genomic integrations were verified using PCR (Primers: pstS_520_Up/glmS_3680_Low, Table 4). Successful integrations were transformed with pCP20 to remove the gentamicin resistance cassette as previously described. Activity of the pore was confirmed through susceptibility testing with the large antibiotic vancomycin prior to phenotypic profiling and further susceptibility testing.
(§2) Single colonies were used to inoculate 3 mL of LB followed by incubation at 37° C. for 18 h with aeration at 220 rpm. The bacterial cells were harvested by centrifugation and resuspended in phosphate buffered saline (PBS) ([pH 7.4], 137 mM NaCl (Bioshop), 2.7 mM KCl (Bioshop), 10 mM Na2PO4 (Bioshop) and 1.8 mM K2PO4) to an OD600 nm˜1.0, followed by 1/2000 dilution into MHB II.
(§3) To a 384-well microtiter plate (Corning, untreated polystyrene), 500 nL of compound was dispensed, in duplicate, and serially titrated 2-fold using an Echo 550 acoustic liquid dispenser (Labcyte Inc.). […] As a solvent control, 500 nL of DMSO was applied to wells that contained no compound. Using a multichannel pipette, 50 μL of the prepared bacterial inoculum was applied to each well. To enable background correction post-incubation, the OD600 nm was measured (Biotek Synergy Neo2 microplate reader) prior to incubation. The plates were incubated at 37° C. with aeration at 900 rpm for 18 h. The plates were equilibrated to room temperature and the OD600 nm measured using a BioTek Synergy Neo2 microplate reader. Data was analyzed in both Prism (GraphPad, Version 9.2.0) and Microsoft Excel (Version 16.53). Raw data were input into Microsoft Excel and the pre-incubation OD600 nm measurements were subtracted from the post-incubation OD600 nm measurements. These corrected measurements were input into Prism 9 as a grouped analysis. […] All other MIC values were adjusted accordingly and visualized using the single-color scale grouped heat map function. Identification of compound chemical properties was achieved using DataWarrior (Version 5.5.0). Using PubChem, the SMILES chemical notation for each compound was obtained and compiled in Microsoft Excel. The resulting spreadsheet was input into DataWarrior and properties were calculated from the compound chemical structures.

[2] = system: wild-type (WT) K-12-Pore; assay: microbe, parasite or virus in culture; details: technical duplicate
Method: as §1, §2, §3

[3] = system: EKO-35 araC::acrEF; assay: MIC susceptibility profiling, efflux platform
Method: as §2, §3

[4] = system: EKO-35 araC::emrKY; assay: MIC susceptibility profiling, efflux platform
Method: as §2, §3

[5] = system: EKO-35 araC::mdtEF; assay: MIC susceptibility profiling, efflux platform
Method: as §2, §3

[6] = system: EKO-35 araC::emrAB; assay: MIC susceptibility profiling, efflux platform
Method: as §2, §3

[7] = system: EKO-35 araC::acrBD408A; assay: MIC susceptibility profiling, efflux platform
Method: as §2, §3

[8] = system: EKO-35 araC::macAB; assay: MIC susceptibility profiling, efflux platform
Method: as §2, §3

[9] = system: EKO-35 araC::mdtEF Pore; assay: MIC susceptibility profiling, porinated efflux platform
Method: as §1, §2, §3

[10] = system: EKO-35 araC::macAB Pore; assay: as above
Method: as §1, §2, §3

[11] = system: EKO-35 araC::mdtBC Pore; assay: as above
Method: as §1, §2, §3

[12] = system: EKO-35 araC::acrD Pore; assay: as above
Method: as §1, §2, §3

[13] = system: EKO-35 araC::emrAB Pore; assay: as above
Method: as §1, §2, §3

[14] = system: EKO-35 araC::acrEF Pore; assay: as above
Method: as §1, §2, §3

[15] = system: EKO-35 araC::mexCD Pore; assay: as above
Method: as §1, §2, §3

[16] = system: EKO-35 araC::acrB Pore; assay: as above
Method: as §1, §2, §3

[17] = system: EKO-35 araC::emrKY Pore; assay: as above
Method: as §1, §2, §3

[18] = system: EKO-35 araC::acrBD408A Pore; assay: as above
Method: as §1, §2, §3

[19] = Table 13A, non-porinated, technical duplicate
[20] = Table 13B, non-porinated, technical duplicate
[21] = Table 14A, porinated, technical duplicate

In the case of benzalkonium chloride, the “Minimum inhibitory concentration (MIC), Pore ΔtolC” value ([1]; Table 10, with pore) is reported as 0.391 µg/mL, the “Minimum inhibitory concentration, ΔtolC-Pore” value ([1]; Table 14A, porinated) is reported as 0.391 µg/mL and the “Minimum inhibitory concentration (MIC), Pore K-12” value ([2]; Table 10, with pore) is reported as 6.25 µg/mL. The “Minimum inhibitory concentration, K-12 (WT)-Pore” value ([2]; Table 14A, porinated) was 6.25 µg/mL, the “Fold change of MICs” value ([3]; EKO-35 araC::acrEF compared to EKO-35) was 4 fold and the “Minimum Inhibitory Concentration, EKO-35 araC::acrEF” value [3, 19] was 1.563 µg/mL. The “Fold change of MICs” value ([4]; EKO-35 araC::emrKY compared to EKO-35) was 1 fold, the “Minimum Inhibitory Concentration, EKO-35 araC::emrKY” value [4, 20] was 0.391 µg/mL and the “Fold change of MICs” value ([5]; EKO-35 araC::mdtEF compared to EKO-35) was 4 fold. For the same substance, the “Minimum Inhibitory Concentration, EKO-35 araC::mdtEF” value [5, 19] was 1.563 µg/mL, the “Fold change of MICs” value ([6]; EKO-35 araC::emrAB compared to EKO-35) was 1 fold and the “Minimum Inhibitory Concentration, EKO-35 araC::emrAB” value [6, 20] was 0.391 µg/mL. For the same substance, the “Fold change of MICs” value ([7]; EKO-35 araC::acrBD408A compared to EKO-35) was 1 fold, the “Minimum Inhibitory Concentration, EKO-35 araC::acrBD408A” value [7, 20] was 0.391 µg/mL and the “Fold change of MICs” value ([8]; EKO-35 araC::macAB compared to EKO-35) was 1 fold. The “Minimum Inhibitory Concentration, EKO-35 araC::macAB” value [8, 20] was 0.391 µg/mL, the “Fold changes of MICs” value ([9]; EKO-35 araC::mdtEF Pore compared to EKO-35-Pore) was 4 fold and the “Minimum inhibitory concentration, EKO-35 araC::mdtEF Pore” value [9, 21] was 1.563 µg/mL. For the same substance, the “Fold changes of MICs” value ([10]; EKO-35 araC::macAB Pore compared to EKO-35-Pore) was 1 fold, the Minimum inhibitory concentration ([10]; EKO-35 araC::macAB Pore, technical duplicate) was 0.391 µg/mL and the “Fold changes of MICs” value ([11]; EKO-35 araC::mdtBC Pore compared to EKO-35-Pore) was 1 fold. The Minimum inhibitory concentration ([11]; EKO-35 araC::mdtBC Pore, technical duplicate) was 0.195 µg/mL, the “Fold changes of MICs” value ([12]; EKO-35 araC::acrD Pore compared to EKO-35-Pore) was 1 fold and the “Minimum inhibitory concentration, EKO-35 araC::acrD Pore” value [12, 21] was 0.391 µg/mL. For the same substance, the “Fold changes of MICs” value ([13]; EKO-35 araC::emrAB Pore compared to EKO-35-Pore) was 1 fold, the Minimum inhibitory concentration ([13]; EKO-35 araC::emrAB Pore, technical duplicate) was 0.391 µg/mL and the “efflux pump-mediated resistance vs EKO-35-Pore” value ([14]; AcrEF with the pore) was “impacted the ability of AcrEF to confer resistance”. For the same substance, the “Fold changes of MICs” value ([14]; EKO-35 araC::acrEF Pore compared to EKO-35-Pore) was 2 fold, the “Minimum inhibitory concentration, EKO-35 araC::acrEF Pore” value [14, 21] was 0.781 µg/mL and the “Fold changes of MICs” value ([15]; EKO-35 araC::mexCD Pore compared to EKO-35-Pore) was 1 fold. For the same substance, the Minimum inhibitory concentration ([15]; EKO-35 araC::mexCD Pore, technical duplicate) was 0.391 µg/mL, the “Fold changes of MICs” value ([16]; EKO-35 araC::acr-B Pore compared to EKO-35-Pore) was 8 fold and the “Minimum inhibitory concentration, EKO-35 araC::acrB Pore” value [16, 21] was 3.125 µg/mL. For the same substance, the “Fold changes of MICs” value ([17]; EKO-35 araC::emrKY Pore compared to EKO-35-Pore) was 1 fold, the Minimum inhibitory concentration ([17]; EKO-35 araC::emrKY Pore, technical duplicate) was 0.195 µg/mL and the “Fold changes of MICs” value ([18]; EKO-35 araC::acrBD408A Pore compared to EKO-35-Pore) was 1 fold. The Minimum inhibitory concentration ([18]; EKO-35 araC::acrBD408A Pore, technical duplicate) was 0.391 µg/mL.
